Values joined by “and” are separate entries in the source; they are usually repeats but may differ in a detail not shown here. Equal entries are not always repeated. Values belong to the molecule of their own block, whether it stands above or below them.
Assays:
starch digestion = assay: In vivo starch digestion inhibition (starch feeding test) in the fasting rat; details: for ED50: ED50, starch, fasting rat, Table VI; for in vivo inhibition of starch digestion, in words: compared with expectation from in vitro amylase inhibition
saccharase = target: T1, saccharase (Sus scrofa, UniProt P56729); assay: In vitro saccharase test; format: biochemical, pig; details: for Saccharase Inhibition: Table II; for Saccharase Inhibition In Vitro: Table IV; for saccharase inhibiting activity of isolated product: product of the Examples
T1 construct: sucrase subunit of the sucrase-isomaltase complex hydrolyses sucrose
T1 sequence (P56729 with tags, fused parts or gaps): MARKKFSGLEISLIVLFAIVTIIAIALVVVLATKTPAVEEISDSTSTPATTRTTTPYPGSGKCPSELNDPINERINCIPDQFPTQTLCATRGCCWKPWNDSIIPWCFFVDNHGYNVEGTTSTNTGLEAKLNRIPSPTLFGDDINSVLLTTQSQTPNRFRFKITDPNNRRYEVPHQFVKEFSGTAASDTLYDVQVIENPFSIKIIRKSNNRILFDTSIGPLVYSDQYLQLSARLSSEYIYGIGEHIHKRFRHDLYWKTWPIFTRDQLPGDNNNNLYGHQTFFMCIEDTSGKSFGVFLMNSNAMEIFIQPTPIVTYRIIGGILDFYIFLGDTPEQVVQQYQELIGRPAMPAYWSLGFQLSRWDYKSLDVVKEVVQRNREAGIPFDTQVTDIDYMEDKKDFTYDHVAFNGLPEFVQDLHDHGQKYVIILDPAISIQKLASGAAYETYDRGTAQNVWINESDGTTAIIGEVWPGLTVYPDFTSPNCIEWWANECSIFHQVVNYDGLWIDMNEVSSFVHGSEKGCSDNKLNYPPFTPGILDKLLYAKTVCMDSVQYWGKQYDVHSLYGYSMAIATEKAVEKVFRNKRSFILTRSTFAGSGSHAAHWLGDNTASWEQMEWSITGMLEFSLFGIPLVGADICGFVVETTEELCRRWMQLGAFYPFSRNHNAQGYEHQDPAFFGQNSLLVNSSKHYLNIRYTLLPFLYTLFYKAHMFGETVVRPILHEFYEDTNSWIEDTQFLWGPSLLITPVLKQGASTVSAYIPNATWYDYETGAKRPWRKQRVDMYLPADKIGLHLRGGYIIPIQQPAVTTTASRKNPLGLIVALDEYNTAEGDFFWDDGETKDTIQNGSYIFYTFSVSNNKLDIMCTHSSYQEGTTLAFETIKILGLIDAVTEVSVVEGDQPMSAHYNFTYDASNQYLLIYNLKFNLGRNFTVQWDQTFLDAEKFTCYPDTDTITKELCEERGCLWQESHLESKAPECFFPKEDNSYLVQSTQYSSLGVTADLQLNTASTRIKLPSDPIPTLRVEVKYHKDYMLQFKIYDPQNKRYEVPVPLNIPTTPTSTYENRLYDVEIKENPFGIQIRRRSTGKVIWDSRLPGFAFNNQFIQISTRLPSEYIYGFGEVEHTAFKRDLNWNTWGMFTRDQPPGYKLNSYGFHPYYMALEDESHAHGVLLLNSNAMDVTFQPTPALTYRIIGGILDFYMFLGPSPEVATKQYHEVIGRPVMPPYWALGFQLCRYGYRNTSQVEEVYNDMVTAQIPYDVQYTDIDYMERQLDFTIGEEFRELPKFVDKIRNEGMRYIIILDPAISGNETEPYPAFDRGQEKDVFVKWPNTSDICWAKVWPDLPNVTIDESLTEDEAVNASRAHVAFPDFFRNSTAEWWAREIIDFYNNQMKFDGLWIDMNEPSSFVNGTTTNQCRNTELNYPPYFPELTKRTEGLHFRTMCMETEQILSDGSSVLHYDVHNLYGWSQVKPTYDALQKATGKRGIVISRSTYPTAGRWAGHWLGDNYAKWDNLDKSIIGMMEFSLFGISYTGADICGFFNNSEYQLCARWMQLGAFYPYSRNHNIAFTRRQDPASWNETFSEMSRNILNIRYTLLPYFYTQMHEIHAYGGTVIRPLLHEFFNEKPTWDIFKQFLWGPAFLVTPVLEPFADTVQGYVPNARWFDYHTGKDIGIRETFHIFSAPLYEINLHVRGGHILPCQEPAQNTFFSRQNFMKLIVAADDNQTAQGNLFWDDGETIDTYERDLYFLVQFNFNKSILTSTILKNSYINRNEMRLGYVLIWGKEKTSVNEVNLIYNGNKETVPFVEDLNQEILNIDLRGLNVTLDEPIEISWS
Experimental: One saccharase inhibitor unit (SIU) is defined as the amount of inhibitor which inhibits two saccharase units to the extent of 50%. One saccharase unit (SU) is the amount of enzyme which under the test conditions specified splits 1 μmol of sucrose to glucose and fructose per minute. The μmols of glucose formed are determined quantitatively by means of the glucose oxidase reaction under conditions under which a further splitting of the sucrose by the saccharase no longer takes place. To carry out the test, 0.05 ml of solubilized saccharase [from the mucous membrane of the small intestine of the pig, according to B. Borgastrom, A. Dahlquist, Acta Chem. Scand. 12, (1958), page 1,997], diluted with 0.1 M sodium maleate buffer of pH 6.0 to a SU content adjusted to 0.12 SU is mixed with 0-20 μg of inhibitor or 0-20 μl of the solution to be tested and brought up to 0.1 ml with 0.1 M sodium maleate buffer of pH 6.0. The mixture is equilibrated for 10 minutes at 35° C and 0.1 ml of an 0.05 M sucrose solution in 0.1 M sodium maleate buffer of pH 6.0, pre-warmed to 35° C, is then added. The mixture is incubated for 20 minutes at 35° C, the saccharase reaction is stopped by addition of 1 ml of glucose oxidase reagent, and the incubation is continued for a further 30 minutes at 35° C. (The glucose oxidase reagent is prepared by dissolving 2 mg of glucose oxidase, Boehringer, No. 15,423, in 100 ml of 0.565 M tris-HCl buffer of pH 7.0 and subsequently adding 1 ml of detergent solution (2 g of Triton X 100 + 8 g of 95% strength and analytical grade ethanol), 1 ml of dianisidine solution (260 mg of o-dianisidine. 2HCl in 20 ml of H2 O) and 0.5 ml of 0.1% strength aqueous peroxidase solution, Boehringer, No. 15,302). Thereafter, 1 ml of 50% strength H2 SO4 is added and a measurement carried out at 545 nm against a corresponding blank. To evaluate the results, the percentage inhibition of the saccharase employed is calculated and converted to SIU/g of SIU/liter from the 50% inhibition point, using a glucose calibration curve.

Solubility = format: physicochemical
glucose absorption = assay: Effect on glucose absorption in fasting rats; format: in vivo, rat
Experimental: The produce an alimentary hyperglycemia and hyperinsulinaemia, groups of 6 fasting rats are given (a) 2.5 g of sucrose, (b) 2.5 g of maltose or (c) 1 g of boiled starch orally, in aqueous solution or suspension. Six other rats are given the same carbohydrates in the same amount and a glycoside hydrolase inhibitor in the amount indicated. In addition, six other rats are given an appropriate volume of saline. The blood glucose and the serum insulin are then measured at short intervals of time, in the blood from the retro-orbital venous plexus. Blood glucose determinations are carried out in the Auto-Analyser device (Technicon), according to Hoffmann: J. biol. Chem. 120, 51 (1937), or enzymatically by means of glucose oxidase and o-dianisidine hydrochloride and the serum insulin determinations are carried out according to the method of Hales and Randle: Biochem. J. 88, 137 (1963).

[1] = 1 g starch + 150 AIU oral, 5 Min.
[2] = 1 g starch + 150 AIU oral, 10 Min.
[3] = 1 g starch + 150 AIU oral, 15 Min.
[4] = 1 g starch + 150 AIU oral, 20 Min.
[5] = 1 g starch + 150 AIU oral, 30 Min.
[6] = 1 g starch + 150 AIU oral, 45 Min.
[7] = 1 g starch + 300 AIU oral, 5 Min.
[8] = 1 g starch + 300 AIU oral, 10 Min.
[9] = 1 g starch + 300 AIU oral, 15 Min.
[10] = 1 g starch + 300 AIU oral, 20 Min.
[11] = 1 g starch + 300 AIU oral, 30 Min.
[12] = 1 g starch + 300 AIU oral, 45 Min.

- Saccharase Inhibition (saccharase; in vitro): 21,000 SIU/g
- Saccharase Inhibition In Vitro (saccharase; in vitro): 21 SIU/mg
- saccharase inhibiting activity of isolated product (saccharase): 21,000 SIU/g
Compound: C[C@H]1O[C@H](O[C@H]2[C@H](O)[C@@H](O)[C@@H](O[C@H]3[C@H](O)[C@@H](O)C(O)O[C@@H]3CO)O[C@@H]2CO)[C@H](O)[C@@H](O)[C@@H]1N[C@H]1C=C(CO)[C@@H](O[C@H]2O[C@H](CO)[C@@H](O)[C@H](O)[C@H]2O)[C@H](O)[C@H]1O (stereo partly drawn) [Formula V, O-{4,6-bisdesoxy-4-[1 S-(1,4,6/5)-4,5,6-trihydroxy-3-hydroxymethyl-4-O-α-D-glucopyranosyl-(1→4)-cyclohex-2-en-1-ylamino]-α-D-glycopyranosyl}-(1→4)-O-α-D-glucopyranosyl-(1→4)-D-glucopyranose]
- Blood Glucose (Mean ± SD) (starch digestion; 1 g starch + 750 AIU oral, 5 Min.): 86 ± 8.5 mg%
- Blood Glucose (Mean ± SD) (starch digestion; 1 g starch + 750 AIU oral, 10 Min.): 107 ± 5.0 mg%
- Blood Glucose (Mean ± SD) (starch digestion; 1 g starch + 750 AIU oral, 15 Min.): 117 ± 8.7 mg%
- Blood Glucose (Mean ± SD) (starch digestion; 1 g starch + 750 AIU oral, 20 Min.): 121 ± 12 mg%
- Blood Glucose (Mean ± SD) (starch digestion; 1 g starch + 750 AIU oral, 30 Min.): 126 ± 11 mg%
- Blood Glucose (Mean ± SD) (starch digestion; 1 g starch + 750 AIU oral, 45 Min.): 114 ± 3.6 mg%
- Blood Glucose (Mean ± SD) (starch digestion; 1 g starch + 1,500 AIU oral, 5 Min.): 77 ± 14 mg%
- Blood Glucose (Mean ± SD) (starch digestion; 1 g starch + 1,500 AIU oral, 10 Min.): 92 ± 9.6 mg%
- Blood Glucose (Mean ± SD) (starch digestion; 1 g starch + 1,500 AIU oral, 15 Min.): 94 ± 9.5 mg%
- Blood Glucose (Mean ± SD) (starch digestion; 1 g starch + 1,500 AIU oral, 20 Min.): 113 ± 9.7 mg%
- Blood Glucose (Mean ± SD) (starch digestion; 1 g starch + 1,500 AIU oral, 30 Min.): 112 ± 8.8 mg%
- Blood Glucose (Mean ± SD) (starch digestion; 1 g starch + 1,500 AIU oral, 45 Min.): 111 ± 4.2 mg%
- Blood Glucose (Mean ± SD) (starch digestion; 1 g starch + 3,000 AIU oral, 5 Min.): 65 ± 5.6 mg%
- Blood Glucose (Mean ± SD) (starch digestion; 1 g starch + 3,000 AIU oral, 10 Min.): 101 ± 3.3 mg%
- Blood Glucose (Mean ± SD) (starch digestion; 1 g starch + 3,000 AIU oral, 15 Min.): 82 ± 11 mg%
- Blood Glucose (Mean ± SD) (starch digestion; 1 g starch + 3,000 AIU oral, 20 Min.): 112 ± 4.5 mg%
- Blood Glucose (Mean ± SD) (starch digestion; 1 g starch + 3,000 AIU oral, 30 Min.): 109 ± 6.4 mg%
- Blood Glucose (Mean ± SD) (starch digestion; 1 g starch + 3,000 AIU oral, 45 Min.): 104 ± 2.5 mg%
- ED50 (starch digestion): 1.61 mg/kg
- in vivo inhibition of starch digestion, in words (starch digestion): much higher than would be expected

- solubility (Solubility; water, dimethylformamide, dimethylsulfoxide, methanol and hot ethanol): good solubility
- Saccharase inhibition relative to the derivative having two units (saccharase; in vitro, in words): only half as much
- Saccharase Inhibition (saccharase; in vitro): 30,000 SIU/g
- Saccharase Inhibition In Vitro (saccharase; in vitro): 30 SIU/mg
- saccharase inhibiting activity of isolated product (saccharase; listed as one glucose unit): 30,000 SIU/g and 35,000 SIU/g
Compound: C[C@H]1O[C@H](O[C@H]2[C@H](O)[C@@H](O)C(O)O[C@@H]2CO)[C@H](O)[C@@H](O)[C@@H]1N[C@H]1C=C(CO)[C@@H](O)[C@H](O)[C@H]1O (stereo partly drawn) [Formula IIB, O-{4,6-bisdesoxy-4-[1 S-(1,4,6/5)-4,5,6-trihydroxy-3-hydroxymethylcyclohex-2-en-1-ylamino]-α-D-glucopyranosyl}-(1→4)-D-glucopyranose]
- Blood Glucose (Mean ± SD) (starch digestion; 1 g starch + 75 AIU oral, 5 Min.): 102 ± 2.9 mg%
- Blood Glucose (Mean ± SD) (starch digestion; 1 g starch + 75 AIU oral, 10 Min.): 130 ± 6.9 mg%
- Blood Glucose (Mean ± SD) (starch digestion; 1 g starch + 75 AIU oral, 15 Min.): 128 ± 5.4 mg%
- Blood Glucose (Mean ± SD) (starch digestion; 1 g starch + 75 AIU oral, 20 Min.): 143 ± 11 mg%
- Blood Glucose (Mean ± SD) (starch digestion; 1 g starch + 75 AIU oral, 30 Min.): 125 ± 11 mg%
- Blood Glucose (Mean ± SD) (starch digestion; 1 g starch + 75 AIU oral, 45 Min.): 132 ± 18 mg%
- Blood Glucose (Mean ± SD) (starch digestion; [1]): 98 ± 8.7 mg%
- Blood Glucose (Mean ± SD) (starch digestion; [2]): 116 ± 9.0 mg%
- Blood Glucose (Mean ± SD) (starch digestion; [3]): 128 ± 5.8 mg%
- Blood Glucose (Mean ± SD) (starch digestion; [4]): 127 ± 4.8 mg%
- Blood Glucose (Mean ± SD) (starch digestion; [5]): 115 ± 5.2 mg%
- Blood Glucose (Mean ± SD) (starch digestion; [6]): 137 ± 5.2 mg%
- Blood Glucose (Mean ± SD) (starch digestion; [7]): 87 ± 13 mg%
- Blood Glucose (Mean ± SD) (starch digestion; [8]): 106 ± 1.8 mg%
- Blood Glucose (Mean ± SD) (starch digestion; [9]): 110 ± 8.9 mg%
- Blood Glucose (Mean ± SD) (starch digestion; [10]): 111 ± 2.1 mg%
- Blood Glucose (Mean ± SD) (starch digestion; [11]): 108 ± 5.3 mg%
- Blood Glucose (Mean ± SD) (starch digestion; [12]): 121 ± 7.2 mg%
- ED50 (starch digestion): 0.76 mg/kg
- in vivo inhibition of starch digestion, in words (starch digestion): much higher than would be expected

Compound: C[C@H]1O[C@H](O[C@H]2[C@H](O)[C@@H](O)[C@@H](O[C@H]3[C@H](O)[C@@H](O)C(O)O[C@@H]3CO)O[C@@H]2CO)[C@H](O)[C@@H](O)[C@@H]1N[C@H]1C=C(CO)[C@@H](O)[C@H](O)[C@H]1O (stereo partly drawn) [Formula IIIB, O-{4,6-bisdesoxy-4-[1 S-(1,4,6/5)-4,5,6-trihydroxy-3-hydroxymethylcyclohex-2-en-1-ylamino]-α-D-glucopyranosyl}-(1→4)-O-α-D-glucopyranosyl-(1→4)-D-glucopyranose]
- Blood Glucose (Mean ± SD) (starch digestion; [1]): 82 ± 7.5 mg%
- Blood Glucose (Mean ± SD) (starch digestion; [2]): 105 ± 4.2 mg%
- Blood Glucose (Mean ± SD) (starch digestion; [3]): 120 ± 6.0 mg%
- Blood Glucose (Mean ± SD) (starch digestion; [4]): 124 ± 7.0 mg%
- Blood Glucose (Mean ± SD) (starch digestion; [5]): 134 ± 6.1 mg%
- Blood Glucose (Mean ± SD) (starch digestion; [6]): 125 ± 5.2 mg%
- Blood Glucose (Mean ± SD) (starch digestion; [7]): 79 ± 8.2 mg%
- Blood Glucose (Mean ± SD) (starch digestion; [8]): 97 ± 2.7 mg%
- Blood Glucose (Mean ± SD) (starch digestion; [9]): 105 ± 10 mg%
- Blood Glucose (Mean ± SD) (starch digestion; [10]): 118 ± 6.7 mg%
- Blood Glucose (Mean ± SD) (starch digestion; [11]): 119 ± 9.9 mg%
- Blood Glucose (Mean ± SD) (starch digestion; [12]): 130 ± 5.9 mg%
- Blood Glucose (Mean ± SD) (starch digestion; 1 g starch + 600 AIU oral, 5 Min.): 70 ± 4.6 mg%
- Blood Glucose (Mean ± SD) (starch digestion; 1 g starch + 600 AIU oral, 10 Min.): 80 ± 8.8 mg%
- Blood Glucose (Mean ± SD) (starch digestion; 1 g starch + 600 AIU oral, 15 Min.): 94 ± 6.9 mg%
- Blood Glucose (Mean ± SD) (starch digestion; 1 g starch + 600 AIU oral, 20 Min.): 91 ± 16 mg%
- Blood Glucose (Mean ± SD) (starch digestion; 1 g starch + 600 AIU oral, 30 Min.): 103 ± 9.2 mg%
- Blood Glucose (Mean ± SD) (starch digestion; 1 g starch + 600 AIU oral, 45 Min.): 102 ± 4.2 mg%
- Blood Glucose (Mean ± SD) (starch digestion; 1 g starch + 1,200 AIU oral, 5 Min.): 70 ± 7.0 mg%
- Blood Glucose (Mean ± SD) (starch digestion; 1 g starch + 1,200 AIU oral, 10 Min.): 84 ± 7.7 mg%
- Blood Glucose (Mean ± SD) (starch digestion; 1 g starch + 1,200 AIU oral, 15 Min.): 88 ± 7.4 mg%
- Blood Glucose (Mean ± SD) (starch digestion; 1 g starch + 1,200 AIU oral, 20 Min.): 97 ± 5.2 mg%
- Blood Glucose (Mean ± SD) (starch digestion; 1 g starch + 1,200 AIU oral, 30 Min.): 97 mg%
- Blood Glucose (Mean ± SD) (starch digestion; 1 g starch + 1,200 AIU oral, 45 Min.): 100 ± 4.3 mg%
- ED50 (starch digestion): 1.6 mg/kg
- in vivo inhibition of starch digestion, in words (starch digestion): much higher than would be expected
- water solubility (Solubility): readily water-soluble
- Saccharase inhibition, in words (saccharase; in vitro): most pronounced
- Saccharase Inhibition (saccharase; in vitro): 68,000 SIU/g
- Saccharase Inhibition In Vitro (saccharase; in vitro): 68 SIU/mg
- saccharase inhibiting activity of isolated product (saccharase; listed as 2 glucose units): 50,000 SIU/g and 60,000 SIU/g
- saccharase inhibiting activity of isolated product (saccharase; listed as 2 units): 68,000 SIU/g
- saccharase inhibiting activity of isolated product (saccharase; listed as two glucose units): 65,000 SIU/g
- Blood Glucose (Mean ± SD) (glucose absorption; glucose + 30 mg, 15 Min.): 135 ± 13 mg%
- Blood Glucose (Mean ± SD) (glucose absorption; glucose + 30 mg, 30 Min.): 128 ± 5.5 mg%
- Blood Glucose (Mean ± SD) (glucose absorption; glucose + 30 mg, 45 Min.): 132 ± 7.3 mg%
- Blood Glucose (Mean ± SD) (glucose absorption; glucose + 60 mg, 15 Min.): 125 ± 13 mg%
- Blood Glucose (Mean ± SD) (glucose absorption; glucose + 60 mg, 30 Min.): 118 ± 2.9 mg%
- Blood Glucose (Mean ± SD) (glucose absorption; glucose + 60 mg, 45 Min.): 130 ± 9.0 mg%
